Values of other authors as cited in US20230414606A1 (Lake O'Hara LLC, priority 2022, published 2023).

Legend:
[1] = previous studies, no patients with BMI>35 kg/m2
CYP3A4 = CYP3A4 (Homo sapiens, UniProt P08684); conditions: based on the literature, model input
[2] = based on the literature, model input

Sequence of CYP3A4 (P08684 whole entry): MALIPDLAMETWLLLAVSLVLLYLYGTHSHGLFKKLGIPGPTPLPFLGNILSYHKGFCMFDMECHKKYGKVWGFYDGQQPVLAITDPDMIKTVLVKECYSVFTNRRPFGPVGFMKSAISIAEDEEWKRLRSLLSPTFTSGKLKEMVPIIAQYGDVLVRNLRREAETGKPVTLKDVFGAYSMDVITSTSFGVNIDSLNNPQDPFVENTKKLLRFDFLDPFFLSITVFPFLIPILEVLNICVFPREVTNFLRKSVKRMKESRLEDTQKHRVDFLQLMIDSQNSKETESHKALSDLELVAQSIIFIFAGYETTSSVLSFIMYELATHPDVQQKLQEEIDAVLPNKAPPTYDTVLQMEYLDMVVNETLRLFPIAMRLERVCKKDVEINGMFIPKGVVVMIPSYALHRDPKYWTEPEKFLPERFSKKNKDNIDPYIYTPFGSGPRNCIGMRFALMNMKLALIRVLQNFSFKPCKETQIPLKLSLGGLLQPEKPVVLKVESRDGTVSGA

SMILES: O=c1ccc2ccc(OCCCCN3CCN(c4cccc5sccc45)CC3)cc2[nH]1 [brexpiprazole, 7-14-14-(1-Benzothiophen-4-yl)piperazin-1-yllbutoxylquinolin-2(1H)-one]
- brexpiprazole clearance due to other routes [2]: 10%
- renal clearance (model assumption, clearance entirely in the liver): ~1%
- effect of weight on the pharmacokinetics of brexpiprazole [1]: less than 20%
- brexpiprazole clearance due to CYP3A4 (CYP3A4): 46.7%
- decrease of baseline clearance by CYP2D6 PM status (CYP2D6; CYP2D6 PM): ~30%
- brexpiprazole clearance due to CYP2D6 (CYP2D6; [2]): 43.3%
